Experiments:
[1] = tested on: LDL (low-density lipoprotein); assay: oxidation resistance of LDL (study by Milde and Elstner); format: biochemical; conditions: lutein as a powder or dissolved in ethanol vs. solubilizate
Source text: A study by J. Milde and E. F. Elstner (Technical University of Munich) has shown that lutein has no effect on the oxidation resistance of LDL (low-density lipoprotein) as a powder or dissolved in ethanol. […] The micellated lutein from the solubilizate is enriched in the LDL by a factor of 9 more (10 mole lutein/mole LDL).

[2] = cited from earlier work

Compound | effect on the oxidation resistance of LDL [1] | solubility in water (background statement) [2]
CC1=C[C@H](O)CC(C)(C)[C@H]1/C=C/C(C)=C/C=C/C(C)=C/C=C/C=C(C)/C=C/C=C(C)/C=C/C1=C(C)C[C@@H](O)CC1(C)C [lutein] | no effect | practically insoluble in water
lutein ester | – | practically insoluble in water
